# According to patent US6737076B2, “Hypoallergenic composition containing tolerogenic peptides” (Nestec S.A., priority 1999, dated 2004):
# Columns and labels:
# [1] = tested on: Balb/c mice; assay: Oral tolerance induction mouse model, overall tolerogenic properties; type: in vivo; details: oral administration of synthetic peptides, 20 mcg/g of body weight
# Procedure: (§1) Female Balb/c mice were obtained from IFFA-Crédo (L'Abresle, France). They were all bred and raised on a milk free diet. The mice were 3 weeks old at the start of the experiments.
# (§2) Gavages were orally administered to the mice at age 22 days, by gastric feeding of native β-LG (5 mg/g of body weight), various amounts of TTH β-LG, or various amounts of the different β-LG peptidic fractions. Control mice were fed saline water. 5 days later, all mice were immunized β-LG and OVA (Ovalbumin, grade V, Sigma), as a non-related antigen for testing the specificity of the immune response, 21 days after systemic challenge, a Delayed Type Hypersensitivity (DTH) evaluation was done by duplicate thickness measures of the left, rear footpad prior to, and following, immunization with β-LG.
# (§3) 24 hours after DTH immunization, individual increases in foot pad thickness of those injected the day before were measured. […] Specific IgE against β-LG and against OVA were determined both in seric and intestinal samples.
# Qualitative responses of the tolerogenic properties generated from feeding the different fraction groups at two different concentrations (0.5 or 0.125 mg/g of body weight) were evaluated. Induction or absence of induction of tolerogenic responses to β-LG has been determined by the statistical significance of the immune response. […]
# [2] = tested on: Spleen cell; assay: Splenocyte specific proliferation assay with β-LG ((3H)Tdr incorporation) from fed mice; type: in vivo; details: 20 mcg/g of body weight; for cellular tolerance (specific inhibition of lymphocyte proliferation), in words: oral administration of synthetic peptides; for Stimulation index (rate): synthetic peptides
# Text: FIG. 1 represents specific oral tolerance induction in mice fed once with either TTH β-LG, F2 or F(7+9). A: Humoral (dark bars) and mucosal (gray bars) anti-β-LG IgE response. B: β-LG-specific DTH response (●) are individual foot pad increments and (−) are means from 10 mice per group. C and D: Specific (β-LG) and non specific (PHA) proliferative responses of splenic cells. Splenic lymphocytes from mice fed with either saline (♦), TTH β-LG (▪), F2 (▴), or F (7+9) (●) were isolated and subsequently stimulated with decreasing concentrations of antigens. ^3H thymidine incorporation was measured after 120 hours of culture. (^3H)Tdr incorporation results were expressed in cpm, as a mean of triplicate cultures, the blank-subtracted mean was then plotted respectively against β-LG or PHA concentration.
# 24 hours after DTH immunization, individual increases in foot pad thickness of those injected the day before were measured. Differences between these two measurements were expressed in <thickness (millimeters) and used in group comparisons. Then, from all mice, blood samples were obtained, spleens were taken and pooled according to group of treatment. Splenocyte specific proliferation assays were performed for each group. Intestinal contents were individually collected. Serum and intestinal samples were rapidly frozen at −80° C., until assays. Specific IgE against β-LG and against OVA were determined both in seric and intestinal samples.
# (§4) Spleen cell solutions were homogenized and purified. Cells were cocultured in the presence of β-LG or of phytohaemagglutinin A. (^3H)Tdr (Amersham, Zurich) was added in the final 6 hours of culture and the plates were harvested and analyzed by scintillation counting. Stimulation indices were calculated as the ratio of blank-subtracted test and control values expressed as the mean cpm (^3H)Tdr incorporation by triplicate cultures.
# (§5) The tolerogenic peptides T6 and T17 contained in tolerogenic fraction F2 were synthetically prepared. T13 contained in a non tolerogenic fraction was also synthesized as a negative control. Oral tolerance induction of these peptides were tested in […] mice as described in example 1c) except that the dose is of 20 mcg/g of body weight.
# [3] = tested on: β-LG epitopes; assay: ELISA inhibition, β-LG IgG binding capacity (residual β-LG epitopes, antigenicity)
# Procedure: An ELISA inhibition was used to determine β-LG epitopes in β-LG hydrolysate and in β-LG fractions. β-lactoglobulin titers were calculated from a 5-fold dilution β-LG standard curve run on each plate.
# [4] = tested on: GLM; assay: Lymphocyte proliferation stimulation index (GLM) after oral peptide feeding; type: in vivo, mice; details: synthetic peptides, 20 mcg/g of body weight
# Procedure: as §4, §5
# [5] = tested on: anti-β-LG IgE; assay: Seric anti-β-LG IgE by ELISA after oral tolerance induction and immunization; type: in vivo, mice; details: synthetic peptides, 20 mcg/g of body weight; control 3.39
# Procedure: as §1, §2, §3
# Serum and intestinal fluid dilutions were assayed in duplicate for anti-β-LG and anti-OVA IgE antibodies by ELISA. […] Titers were determined by calculating the dilution of the sample that gave twice the absorbance of the negative control. Titers were expressed as the log10 of the reciprocal of the dilution. […]
Substance,tolerance induction / tolerogenic potential (in words) [1],"cellular tolerance (specific inhibition of lymphocyte proliferation), in words [2]",Stimulation index (rate) [2],antigenicity (in words) [3],Stimulation index (GLM) [4],tolerized anti-LG IgE/ control (tolerized value) [5]
H2N-I-D-A-L-N-E-N-K-COOH (H-IDALNENK-OH) [T6],high tolerogenic potential,induces a cellular tolerance,0.53,very low antigenicity,0.285,3.24/3.39
"H2N-V-L-V-L-D-T-D-Y-K,-K-COOH [T17]",high tolerogenic potential,induces a cellular tolerance,0.305,very low antigenicity,0.405,2.67/3.39
